Test results taken from patent US20230219904A1 (SYNGENTA CROP PROTECTION AG, priority 2020, published 2023).

Key:
Format in all cases: in vivo
Settings in all cases: evaluated after 13 days
[1] = tested on: Abutilon theophrasti (ABUTH); assay: Pre-emergence herbicidal glasshouse test (Table B1)
How it was run: (§1)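 Application rate was 500 g/h unless otherwise indicated, as a spray prepared from acetone/water (50:50) containing 0.5% Tween 20. Treatment followed one day (pre-emergence) or 8 days (post-emergence) of glasshouse growth, and percentage plant damage was assessed 13 days later on a 1–5 scale.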

[2] = tested on: Amaranthus retoflexus (AMARE); assay: as above
How it was run: as §1

[3] = tested on: Echinochloa crus-galh (ECHCG); assay: as above
How it was run: as §1

[4] = tested on: Ipomoea hederacea (IPOHE); assay: as above
How it was run: as §1

[5] = tested on: Setaria faberi (SETFA); assay: as above
How it was run: as §1

[6] = tested on: Abutilon theophrasti (ABUTH); assay: Post-emergence herbicidal glasshouse test (Table B1)
How it was run: as §1

[7] = tested on: Amaranthus retoflexus (AMARE); assay: as above
How it was run: as §1

[8] = tested on: Echinochloa crus-galh (ECHCG); assay: as above
How it was run: as §1

[9] = tested on: Ipomoea hederacea (IPOHE); assay: as above
How it was run: as §1

[10] = tested on: Setaria faberi (SETFA); assay: as above
How it was run: as §1

| Structure (SMILES) | PRE Application ABUTH, percentage damage on five-point scale ([1]; applied at 500 g/h) | PRE Application AMARE, percentage damage on five-point scale ([2]; applied at 500 g/h) | PRE Application ECHCG, percentage damage on five-point scale ([3]; applied at 500 g/h) | PRE Application IPOHE, percentage damage on five-point scale ([4]; applied) | PRE Application SETFA, percentage damage on five-point scale ([5]; applied at 500 g/h) | POST Application ABUTH, percentage damage on five-point scale ([6]; applied at 500 g/h) | POST Application AMARE, percentage damage on five-point scale ([7]; applied at 500 g/h) | POST Application ECHCG, percentage damage on five-point scale ([8]; applied at 500 g/h) | POST Application IPOHE, percentage damage on five-point scale ([9]; applied at 500 g/h) | POST Application SETFA, percentage damage on five-point scale ([10]; applied at 500 g/h) | PRE Application ABUTH, percentage damage on five-point scale ([1]; applied at 125 g/ha) | PRE Application AMARE, percentage damage on five-point scale ([2]; applied at 125 g/ha) | PRE Application ECHCG, percentage damage on five-point scale ([3]; applied at 125 g/ha) | PRE Application IPOHE, percentage damage on five-point scale ([4]; applied at 125 g/ha) | PRE Application SETFA, percentage damage on five-point scale ([5]; applied at 125 g/ha) | POST Application ABUTH, percentage damage on five-point scale ([6]; applied at 125 g/ha) | POST Application AMARE, percentage damage on five-point scale ([7]; applied at 125 g/ha) | POST Application ECHCG, percentage damage on five-point scale ([8]; applied at 125 g/ha) | POST Application IPOHE, percentage damage on five-point scale ([9]; applied at 125 g/ha) | POST Application SETFA, percentage damage on five-point scale ([10]; applied at 125 g/ha) |
| --- | --- | --- | --- | --- | --- | --- | --- | --- | --- | --- | --- | --- | --- | --- | --- | --- | --- | --- | --- | --- |
| COc1ccc(C(=O)Nc2nnnn2C)c(Cl)c1NC(C)=O [Compound 1.030, 3-acetamido-2-chloro-4-methoxy-N-(1-methyltetrazol-5-yl)benzamide] | 5 (5=80-100%) | 5 (5=80-100%) | 3 (3=40-59%) | 3 (3=40-59%) | 3 (3=40-59%) | 5 (5=80-100%) | 5 (5=80-100%) | 5 (5=80-100%) | 4 (4=60-79%) | 5 (5=80-100%) |  |  |  |  |  |  |  |  |  |  |
| CC(=O)Nc1c(OC(F)(F)C(F)F)ccc(C(=O)Nc2nnnn2C)c1Cl [Compound 1.031] |  |  |  |  |  |  |  |  |  |  | 4 (4=60-79%) | 5 (5=80-100%) | 4 (4=60-79%) | 3 (3=40-59%) | 3 (3=40-59%) | 4 (4=60-79%) | 4 (4=60-79%) | 4 (4=60-79%) | 4 (4=60-79%) | 4 (4=60-79%) |
| Cn1nnnc1NC(=O)c1ccc(OC(F)(F)F)c(NC(=O)C2CC2(F)F)c1Cl (stereo not drawn) [Compound 1.032] | 5 (5=80-100%) | 5 (5=80-100%) | 5 (5=80-100%) | 3 (3=40-59%) | 5 (5=80-100%) | 5 (5=80-100%) | 5 (5=80-100%) | 5 (5=80-100%) | 5 (5=80-100%) | 5 (5=80-100%) |  |  |  |  |  |  |  |  |  |  |
| Cn1nnnc1NC(=O)c1ccc(OC(F)(F)F)c(NC(=O)C2(C)CC2)c1Cl [Compound 1.033] | 5 (5=80-100%) | 5 (5=80-100%) | 5 (5=80-100%) | 5 (5=80-100%) | 5 (5=80-100%) | 5 (5=80-100%) | 5 (5=80-100%) | 5 (5=80-100%) | 5 (5=80-100%) | 5 (5=80-100%) |  |  |  |  |  |  |  |  |  |  |
| Cn1nnnc1NC(=O)c1ccc(OC(F)(F)F)c(NC(=O)CC2CC2)c1Cl [Compound 1.034] | 5 (5=80-100%) | 5 (5=80-100%) | 5 (5=80-100%) | 4 (4=60-79%) | 5 (5=80-100%) | 5 (5=80-100%) | 5 (5=80-100%) | 5 (5=80-100%) | 5 (5=80-100%) | 5 (5=80-100%) |  |  |  |  |  |  |  |  |  |  |
| Cn1nnnc1NC(=O)c1ccc(OC(F)F)c(NC(=O)C2CC2(F)F)c1Cl (stereo not drawn) [Compound 1.035] |  |  |  |  |  |  |  |  |  |  | 5 (5=80-100%) | 5 (5=80-100%) | 3 (3=40-59%) | 3 (3=40-59%) | 4 (4=60-79%) | 4 (4=60-79%) | 4 (4=60-79%) | 4 (4=60-79%) | 4 (4=60-79%) | 4 (4=60-79%) |
